Read-outs that look alike come from different tables or passages of the source.
Assays:
[1] = system: patients with myelofibrosis naïve to treatment with a JAK inhibitor; assay: SIMPLIFY-1 Phase 3 trial, MMB versus RUX, 24 weeks randomized treatment; format: in vivo, human; details: for Response Ratio (MMB/Control): TI response at week 24, MMB/RUX; for 3-year survival: patients randomized to MMB; for Week 24 TI response rate: patients with baseline anemia; for mean ferritin change at W24 from baseline: serum ferritin, irrespective of baseline ferritin
Protocol: In the SIMPLIFY-1 trial (NCT01969838; GS-US-352-0101), the efficacy and safety of MMB versus ruxolitinib (RUX) was studied in patients with myelofibrosis who were naïve to treatment with a JAK inhibitor. Patients (N=432) with high risk or intermediate-2 risk or symptomatic intermediate-1 risk myelofibrosis received 24 weeks of treatment with 200 mg MMB once daily or 20 mg RUX twice a day (or per label), after which all patients could receive open-label momelotinib. […] The primary endpoint was a reduction by at least 35% in the spleen volume at 24 weeks compared with baseline.
(§1) The relationship between W24 response and overall survival (OS) was explored in patients randomized to MMB in the SIMPLFY-1 (S1) and SIMPLIFY-2 (S2) trials.
(§2) Responders were defined as follows: • W24 TI response (TI-R): no RBC transfusion within ?12 weeks immediately prior to W24, with Hgb≥8 g/dL • W24 spleen response: ≥35% spleen volume reduction vs baseline (BL) • W24 symptom response: ≥50% reduction in MFSAF total symptom score vs BL
(§3) Survival from baseline was estimated using K-M analysis with descriptive log-rank tests for comparison applied (all p values are descriptive). Hazard ratios were computed using proportional hazard regression. To adjust for the time to response bias, overall survival from W24 was also compared. As patients randomized to the control arm in both studies and crossed over to open label MMB after 24 weeks of randomized treatment, a valid comparison of overall survival with patients randomized to RUX or BAT/RUX vs MMB was not possible, therefore, only the MMB arm was analyzed.
(§4) Based on the findings from the Phase 2 translational biology study we retrospectively analyzed the relationship between serum ferritin, hepcidin and C-reactive protein (CRP) and the W24 TI response rates for patients randomized to MMB and RUX in the S1 study using univariate analyses and multiple logistic regression models. These findings were then independently confirmed in the previously RUX treated patients in S2.

[2] = system: anemic or thrombocytopenic subjects with myelofibrosis previously treated with ruxolitinib; assay: SIMPLIFY-2 Phase 3 trial, MMB versus best available therapy (BAT); format: in vivo, human; details: for Response Ratio (MMB/Control): TI response at week 24, MMB/BAT
Source text: In the SIMPLIFY-2 trial (NCT02101268; GS-US-352-1214), the efficacy and safety of MMB versus best available treatment (BAT) was studied in anemic or thrombocytopenic subjects with myelofibrosis who were previously treated with ruxolitinib (RUX). There was no lower limit for the required baseline platelet count. […] The primary endpoint was a reduction by at least 35% in the spleen volume at 24 weeks compared with baseline.
as §1, §2, §3, §4

[3] = system: myelofibrosis patients with low platelet counts; assay: Re-analysis of the data from the SIMPLIFY-1 and SIMPLIFY-2 trials by platelet count; format: in vivo, human; details: patients whose platelet counts are 150×109 per liter or below
[4] = system: patients with myelofibrosis naïve to treatment with a JAK inhibitor; details: Mesa et al., cited from earlier work
[5] = system: anemic or thrombocytopenic subjects with myelofibrosis previously treated with ruxolitinib; details: Harrison et al., cited from earlier work
[6] = system: transfusion-dependent myelofibrosis patients; details: Oh et al. 2020, cited from earlier work

SMILES: Cl.N#CCNC(=O)c1ccc(-c2ccnc(Nc3ccc(N4CCOCC4)cc3)n2)cc1 [MMB, N-(cyanomethyl)-4-(2-(4-morpholinophenylamino)pyrimidin-4-yl)benzamide]
- overall survival hazard ratio (HR) ([1]; MMB W24 spleen responders vs nonresponders): 0.59
- overall survival hazard ratio (HR) ([1]; MMB W24 symptom (TSS) responders vs nonresponders): 0.66
- overall survival hazard ratio (HR) ([1]; MMB patients with anemia at baseline, W24 TI-R vs nonresponders): 0.32
- W24 TI-R rate ([1]; MMB vs RUX, irrespective of baseline anemia, platelet count or transfusion status (FIGS. 1-3)): higher in patients randomized to MMB vs RUX
- Response Ratio (MMB/Control) ([1]; baseline ferritin <90 ng/mL): 1.0843
- Response Ratio (MMB/Control) ([1]; baseline ferritin ≥90 ng/mL): 1.7538
- overall survival hazard ratio (HR) ([1]; all patients randomized to MMB, W24 TI responders vs TI nonresponders): 0.30
- stabilizing ferritin over time ([1]; compared to RUX (FIGS. 12 and 13)): more effective at stabilizing ferritin over time when compared to RUX
- W24 TI-R by baseline ferritin cohort ([1]; each ferritin cohort (FIG. 14)): superior to RUX for each ferritin cohort
- W24 TI-R by baseline ferritin cohort ([1]; ferritin levels exceed 650 ng/mL (FIG. 14)): nominally better than RUX
- 3-year survival ([1]; TI nonresponders at W24): 50%
- 3-year survival ([1]; TI responders at W24): 80%
- Week 24 TI response rate [1]: 45%
- mean ferritin change at W24 from baseline [1]: +13.8 ng/mL
- overall survival hazard ratio (HR) ([2]; MMB symptom (TSS) responders vs TSS nonresponders): 0.67
- Response Ratio (MMB/Control) ([2]; baseline ferritin <90 ng/mL): 1.1429
- Response Ratio (MMB/Control) ([2]; baseline ferritin ≥90 ng/mL): 3.7949
- overall survival hazard ratio (HR) ([2]; all patients randomized to MMB, W24 TI responders vs TI non-responders): 0.57
- reducing spleen size (SSR), improving total symptom scores (TSS), improving transfusion independence rates [3]: effective
- thrombocytopenia [3]: without momelotinib administration causing thrombocytopenia
- transfusion dependence rate ([4]; compared to RUX): decreased
- transfusion independence rate ([4]; compared to RUX): increased
- transfusion rate ([4]; compared to RUX): reduced
- reduction of spleen size (primary endpoint) ([4]; vs RUX, JAKi-naïve patients, 24 weeks): noninferior to RUX
- total symptom score (TSS) response (secondary endpoint) ([4]; vs RUX): non-inferiority was not demonstrated
- total symptom score (TSS) response ([5]; compared to BAT group): greater
- transfusion dependence ([5]; compared to BAT group): lower
- transfusion independence ([5]; compared to BAT group): higher
- transfusions ([5]; compared to BAT group): fewer
- reduction of spleen size (primary endpoint) ([5]; vs BAT): not superior to BAT
- hepcidin [6]: acutely and chronically suppresses elevated levels of hepcidin
- hepcidin ([6]; listed as momelotinib): inhibited
- transfusion dependency ([6]; transfusion-dependent myelofibrosis patients): reversed or reduced

SMILES: N#CC[C@H](C1CCCC1)n1cc(-c2ncnc3[nH]ccc23)cn1 [RUX, Ruxolitinib, reference compound]
- Week 24 TI response rate [1]: 26%
- mean ferritin change at W24 from baseline [1]: +226.1 ng/mL

From US20250114371A1, “BIOMARKER AND PATIENT SELECTION IN TREATMENT FOR MYELOFIBROSIS” (GlaxoSmithKline LLC, priority 2021, published 2025)
